Assay results published in ChEMBL document CHEMBL5550106, “Recent advances in the exploration of oxazolidinone scaffolds from compound development to antibacterial agents and other bioactivities” (Eur J Med Chem, 2024).
Converted amounts (≈) assume the structure as drawn.

Tests used:
[1] = Intrinsic clearance in mouse liver microsomes; assay type: ADME, Microsome; conditions: read-out: CLH
Coagulation factor X = Coagulation factor X (Homo sapiens, UniProt P00742); test: Inhibition of human factor Xa
Pseudomonas aeruginosa [2] = test: Antibacterial activity against wild-type Pseudomonas aeruginosa PAO1 incubated for 24 hrs by broth microdilution method; assay type: functional
Pseudomonas aeruginosa [3] = test: Antibacterial activity against Pseudomonas aeruginosa PAO1 assessed as bacterial growth inhibition incubated for 24 hrs by microtiter plate reader analysis; assay type: functional
[4] = tested on: Mycobacterium tuberculosis; test: Antibacterial activity against Mycobacterium tuberculosis H37Rv assessed as inhibition of bacterial growth; assay type: functional
[5] = tested on: Mycobacterium tuberculosis; test: Antibacterial activity against Mycobacterium tuberculosis H37Rv assessed as bacterial growth inhibition incubated for 8 days by resazurin assay; assay type: functional; conditions: 192 h, time 8 day
Staphylococcus aureus [6] = test: Antimicrobial activity against Methicillin-sensitive Staphylococcus aureus ATCC 29213 assessed as reduction in bacterial growth; assay type: functional
Staphylococcus aureus [7] = test: Antibacterial activity against Methicillin-resistant Staphylococcus aureus assessed as fold reduction in bacterial growth incubated for 14 to 16 hrs by microbroth dilution method; assay type: functional; conditions: time 14-16 hrs
Staphylococcus aureus [8] = test: Antimicrobial activity against […] Staphylococcus aureus ATCC 25923 assessed as reduction in microbial growth; assay type: functional
Enterococcus faecalis [9] = test: Antibacterial activity against vancomycin-resistant Enterococcus faecalis incubated for 18 hrs by broth microdilution method; assay type: functional
Staphylococcus aureus [10] = test: Antibacterial activity against Methicillin-resistant Staphylococcus aureus ATCC 33592 assessed as reduction in bacterial growth; assay type: functional
Haemophilus influenzae = test: Antibacterial activity against Haemophilus influenzae assessed as bacterial growth inhibition; assay type: functional
Staphylococcus aureus [11] = test: Antibacterial activity against methicillin-sensitive Staphylococcus aureus assessed as reduction in bacterial growth incubated for 24 hrs by broth microdilution method; assay type: functional
Enterococcus faecium = test: Antibacterial activity against vancomycin-resistant Enterococcus faecium assessed as reduction in microbial growth CLSI-based double dilution method; assay type: functional
Staphylococcus aureus [12] = test: Antibacterial activity against Staphylococcus aureus assessed as reduction in microbial growth by CLSI based broth microdilution method; assay type: functional
[13] = tested on: Staphylococcus epidermidis; test: Antibacterial activity against Methicillin-resistant Staphylococcus epidermidis assessed as bacterial growth inhibition; assay type: functional
Staphylococcus aureus [14] = test: Antibacterial activity against methicillin-resistant Staphylococcus aureus assessed as reduction in microbial growth by CLSI based broth microdilution method; assay type: functional
[15] = tested on: Staphylococcus epidermidis; test: Antibacterial activity against linezolid-resistant Staphylococcus epidermidis assessed as reduction in bacterial growth; assay type: functional
Staphylococcus aureus [16] = test: Antibacterial activity against Linezolid-resistant Staphylococcus aureus assessed as reduction in bacterial growth; assay type: functional
[17] = tested on: Staphylococcus epidermidis; test: Antibacterial activity against Staphylococcus epidermidis assessed as reduction in microbial growth after 24 hrs by CLSI based microdilution method; assay type: functional
Staphylococcus aureus [18] = test: Antibacterial activity against methicillin-sensitive Staphylococcus aureus assessed as reduction in microbial growth by CLSI based broth microdilution method; assay type: functional
Staphylococcus aureus [19] = test: Antimicrobial activity against […] Staphylococcus aureus ATCC 25923 assessed as reduction in cell growth by microdilution method; assay type: functional
Enterococcus faecalis [20] = test: Antibacterial activity against vancomycin-resistant Enterococcus faecalis NR 31912 assessed as inhibition of bacterial growth; assay type: functional
Staphylococcus aureus [21] = test: Antibacterial activity against Methicillin-sensitive Staphylococcus aureus ATCC 9144 assessed as reduction in bacterial growth; assay type: functional
[22] = tested on: Mycobacterium tuberculosis; test: Antitubercular activity against XDR Mycobacterium tuberculosis X24 assessed as bacterial growth inhibition measured for 9 days; assay type: functional; conditions: X24, 216 h, time 9 day
Staphylococcus aureus [23] = test: Antibacterial activity against Staphylococcus aureus assessed as reduction in bacterial growth incubated for 24 hrs by broth microdilution method; assay type: functional
Escherichia coli [24] = test: Antibacterial activity against Escherichia coli MG1655 in presence of polymyxin B nonapeptide; assay type: functional
Escherichia coli [25] = test: Antimicrobial activity against wild type Escherichia coli MG1655 assessed as inhibition of microbial growth; assay type: functional
Escherichia coli [26] = test: Antibacterial activity against efflux pump-efficient Escherichia coli MG1655 assessed as bacterial growth inhibition; assay type: functional

Sequence of Coagulation factor X (P00742 41-179 limits assumed): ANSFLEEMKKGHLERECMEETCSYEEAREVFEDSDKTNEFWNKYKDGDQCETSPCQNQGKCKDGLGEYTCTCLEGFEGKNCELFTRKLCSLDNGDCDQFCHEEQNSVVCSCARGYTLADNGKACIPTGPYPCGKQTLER
Sequence of Coagulation factor X (P00742 235-488 limits assumed): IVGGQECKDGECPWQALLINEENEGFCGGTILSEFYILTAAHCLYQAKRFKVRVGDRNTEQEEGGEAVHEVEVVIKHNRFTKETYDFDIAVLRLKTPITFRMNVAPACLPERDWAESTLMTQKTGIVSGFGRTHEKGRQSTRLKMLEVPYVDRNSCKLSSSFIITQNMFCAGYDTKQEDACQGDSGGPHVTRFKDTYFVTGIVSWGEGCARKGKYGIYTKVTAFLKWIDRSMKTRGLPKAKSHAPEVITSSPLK

Compound: CC(=O)NC[C@H]1CN(c2ccc(N3CCC(Nc4ccc(Br)cc4)CC3)c(F)c2)C(=O)O1
- CLint scaled [1]: 3.46 mL/min/kg

Compound: O=C(NC[C@@H]1OC(=O)N2c3ccc(N4CCCCC4=O)cc3CC[C@@H]12)c1ccc(Cl)s1
- IC50 (Coagulation factor X): 6 nM

Compound: CC(=O)NCC1CN(c2ccc(N3CCN(C(=O)COn4cc(CNC(=O)C(CNC(=O)C(CNC(=O)CNC(=O)c5cccc(O)c5O)NC(=O)c5cccc(O)c5O)NC(=O)c5cccc(O)c5O)nn4)CC3)c(F)c2)C(=O)O1 (centres undefined)
- MIC (Pseudomonas aeruginosa [2]): > 64 µM
- MIC (Pseudomonas aeruginosa [3]): 16 µM (≈ 18 µg/mL)

Compound: CC(C)(C)Oc1ccc(C[C@H](NC(=O)OCC2c3ccccc3-c3ccccc32)C(=O)N[C@@H](Cc2ccccc2)[C@@H]2CN(c3ccc(N4CCOCC4)c(F)c3)C(=O)O2)cc1
- MIC [4]: 12.5 µg/mL (≈ 15.1 µM)

Compound: O=C([C@@H](O)CO)N1CC=C(c2c(F)cc(N3C[C@H](COc4ccon4)OC3=O)cc2F)CC1 [POSIZOLID]
- MIC90 [5]: 1 µg/mL (≈ 2.15 µM)

Compound: Cn1nnc(-c2ccc(-c3ccc(N4C[C@H](CO)OC4=O)cc3F)cn2)n1 [TEDIZOLID]
- MIC90 (Staphylococcus aureus [6]): 0.25 µg/mL (≈ 0.675 µM)
- fold change (FC) (Staphylococcus aureus [7]): 4
- MIC90 (Staphylococcus aureus [8]): 0.25 µg/mL
- MIC90 (Enterococcus faecalis [9]): 0.5 µg/mL (≈ 1.35 µM)

Compound: CC(=O)NC[C@H]1CN(c2ccc(-c3ccc(CNCc4cnn[nH]4)cc3)c(F)c2)C(=O)O1 [RADEZOLID]
- MIC90 (Staphylococcus aureus [10]): 0.5 µg/mL (≈ 1.14 µM)
- MIC90 (Haemophilus influenzae): 0.5 µg/mL (≈ 1.14 µM)
- MIC90 (Staphylococcus aureus [11]): 0.5 µg/mL (≈ 1.14 µM)
- MIC90 (Enterococcus faecium): 0.5 µg/mL

Compound: O=C1NC(=O)C2(Cc3cc(-c4ccc(N5C[C@H](CO)OC5=O)cc4F)ccc3N3CCOCC32)C(=O)N1 (some centres undefined)
- MIC (Staphylococcus aureus [12]): 8 µg/mL
- MIC [13]: 2 µg/mL (≈ 3.92 µM)
- MIC (Staphylococcus aureus [14]): 4 µg/mL
- MIC [15]: 32 µg/mL (≈ 62.7 µM)
- MIC (Staphylococcus aureus [16]): 32 µg/mL (≈ 62.7 µM)
- MIC [17]: 4 µg/mL

Compound: C[C@H](NC(=O)[C@H](NC(=O)OCC1c2ccccc2-c2ccccc21)[C@H](C)OC(C)(C)C)[C@H]1CN(c2ccc(N3CCOCC3)c(F)c2)C(=O)O1
- MIC (Staphylococcus aureus [18]): 6.25 µg/mL

Compound: O=C(NC[C@@H]1OC(=O)N2c3ccc(N4CCOCC4=O)cc3S(=O)(=O)C[C@@H]12)c1ccc(Cl)s1
- IC50 (Coagulation factor X): 20 nM

Compound: CN1CCN(c2ccc(N3C[C@H](CO)OC3=O)cc2F)C=N1 [DELPAZOLID]
- MIC90 (Staphylococcus aureus [19]): 1 µg/mL
- MIC90 (Enterococcus faecalis [20]): 0.5 µg/mL (≈ 1.62 µM)
- MIC90 (Staphylococcus aureus [21]): 1 µg/mL (≈ 3.24 µM)
- MIC90 [22]: 0.5 µg/mL (≈ 1.62 µM)

Compound: CC(=O)NCC1CN(c2ccc(N3CCN(C(=O)CCOCCOCn4cc(CNC(=O)C(CNC(=O)C(CNC(=O)CNC(=O)c5cccc(O)c5O)NC(=O)c5cccc(O)c5O)NC(=O)c5cccc(O)c5O)nn4)CC3)c(F)c2)C(=O)O1 (centres undefined)
- MIC (Pseudomonas aeruginosa [2]): > 64 µM
- MIC (Pseudomonas aeruginosa [3]): 64 µM (≈ 76.8 µg/mL)

Compound: COC(=O)NC[C@H]1CN(c2ccc(-c3ccc4c(c3)CC3(C(=O)NC(=O)NC3=O)C3CCCN43)c(F)c2)C(=O)O1 (some centres undefined)
- MIC (Staphylococcus aureus [12]): 2 µg/mL
- MIC [13]: 2 µg/mL (≈ 3.63 µM)
- MIC (Staphylococcus aureus [14]): 2 µg/mL
- MIC [15]: 32 µg/mL (≈ 58 µM)
- MIC (Staphylococcus aureus [16]): 32 µg/mL (≈ 58 µM)
- MIC [17]: 2 µg/mL

Compound: CS(=O)(=O)c1ccccc1-c1ccc2c(c1)OC[C@H]1[C@H](CNC(=O)c3ccc(Cl)s3)OC(=O)N21
- IC50 (Coagulation factor X): 30 nM

Compound: O=C(NC[C@@H]1OC(=O)N2c3ccc(N4CCOC4=O)cc3OC[C@@H]12)c1ccc(Cl)s1
- IC50 (Coagulation factor X): 15700 nM

Compound: CC(=O)NC[C@H]1CN(c2ccc(N3CCOCC3)c(F)c2)C(=O)O1 [LINEZOLID]
- MIC (Staphylococcus aureus [23]): 3.1 µg/mL (≈ 9.19 µM)
- MIC (Escherichia coli [24]): 36 µg/mL
- MIC [13]: 2 µg/mL (≈ 5.93 µM)
- MIC (Escherichia coli [25]): 130 µg/mL
- MIC (Pseudomonas aeruginosa [3]): 4 µM (≈ 1.35 µg/mL)
- MIC [15]: > 32 µg/mL
- MIC (Escherichia coli [26]): 11 µg/mL (≈ 32.6 µM)
- MIC [4]: 1.56 µg/mL (≈ 4.62 µM)
- MIC (Staphylococcus aureus [16]): > 32 µg/mL
- MIC [17]: 2 µg/mL

Compound: O=C(NC[C@@H]1OC(=O)N2c3ccc(N4CCOCC4=O)cc3[S+]([O-])C[C@@H]12)c1ccc(Cl)s1 (some centres undefined)
- IC50 (Coagulation factor X): 60 nM

Compound: O=C(NC[C@@H]1OC(=O)N2c3ccc(N4CCOCC4=O)cc3CC[C@@H]12)c1ccc(Cl)s1
- IC50 (Coagulation factor X): 4 nM

Compound: O=C(NC[C@@H]1OC(=O)N2c3ccc(N4CCOCC4=O)cc3SC[C@@H]12)c1ccc(Cl)s1
- IC50 (Coagulation factor X): 2 nM
